US7605227B2, “Melanoma antigen peptide analogues” (MannKind Corporation, priority 2005, dated 2009)
“Also recorded” adds a separate entry of the source. Square brackets hold non-standard residues; d marks the D form. Ends that are not written are not given here. Nva = CCC[C@H](N)C(=O)O

Key:
[1] = test system: 51Cr-labeled target cells (T2 cells); experiment: Plasmid prime, SSX-2 peptide boost, ex vivo 51Cr cytotoxicity against T2 target cells; assay type: in vivo, mice; conditions: peptide as boost agent after plasmid; 51Cr T2 targets
Procedure: Three groups of mice (n=4) were immunized with a plasmid expressing SSX-241-49 natural epitope by direct inoculation into the inguinal lymph nodes with 25 μg in 25 μl of PBS/each lymph node at day 0, 3, 14 and 17. This was followed by two additional peptide boosts (similar amount) at day 28 and 31. One week after the boost, splenocytes were stimulated ex vivo with SSX-241-49 natural peptide and tested against ^51Cr-labeled target cells (T2 cells) at various E:T ratios (FIG. 8). […] This correlated with the binding and stability parameters determined by ex vivo experimentation.

[2] = test system: 624.38 melanoma cells; experiment: Plasmid prime, SSX-2 peptide boost, ex vivo cytotoxicity against human tumor cells; assay type: in vivo, mice; conditions: ex vivo after boost
Procedure: Eight groups of mice (n=4) were immunized with plasmid expressing SSX-241-49 natural epitope by direct inoculation into the inguinal lymph nodes with 25 μg in 25 μl of PBS/each lymph node at day 0, 3, 14 and 17. This was followed by two additional peptide boosts (similar amount) at day 28 and 31, using a negative control peptide (Melan A 26-35 “EAA”), natural peptide or analogs as shown in FIG. 9.

[3] = test system: T cell lines against a natural (non-mutated) epitope (SSX-241-49); experiment: Cross-reactivity and functional avidity: IFN-gamma from T cell lines against natural SSX-2 41-49 epitope; assay type: cell-based, HHD transgenic mice; conditions: IFN-gamma from T cell line raised against native SSX-2 41-49; native = 1, lower = more active;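 further: peptide analogs tested ex vivo with competent APCs, IFN-gamma in supernatant measured by ELISA, readouts include minimal triggering concentration, peak effect and concentration at peak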
[4] = test system: target cells coated with natural peptide; experiment: Plasmid prime, SSX-2 peptide boost, in vivo cytotoxicity (CFSE); parameters: species or system HHD mice; conditions: spleen and blood; targets coated with 20 μg/ml and 1 μg/ml natural peptide
Procedure: Eight groups of mice (n=4) were immunized with plasmid expressing SSX-241-49 natural epitope, by direct inoculation into the inguinal lymph nodes with 25 μg in 25 μl of PBS/each lymph node at day 0, 3, 14 and 17. This was followed by two additional peptide boosts (similar amount) at day 28 and 31, using a negative control peptide (Melan A 26-35 “EAA”), natural peptide or analogs as shown in FIG. 9.
To evaluate the in vivo response against natural peptide, splenocytes were isolated from littermate control HHD mice and incubated with 20 μg/mL or 1 μg/ml of natural peptide for 2 hours. These cells were then stained with CFSE^hi fluorescence (4.0 μM or 1 μM for 15 minutes) and intravenously co-injected into immunized mice with an equal number of control splenocytes stained with CFSE^lo fluorescence (0.4 μM). Eighteen hours later the specific elimination of target cells was measured by removing spleen and PBMC from challenged animals and measuring CFSE fluorescence by flow cytometry. The relative depletion of the populations corresponding to peptide loaded splenocytes was calculated relative to the control (unloaded) population and expressed as % specific lysis. FIGS. 10 (spleen) and 11 (blood) show the in vivo cytotoxicity elicited by the regimens described in FIG. 7.

[5] = test system: PSMA+ A2+ LnCap cells; experiment: PSMA immunization, ex vivo cytotoxicity against human tumor cells; assay type: in vivo, HHD transgenic mice
Procedure: HHD transgenic mice (n=4) were immunized with PSMA288-297 peptide (25 μg in 25 μl of PBS, plus 12.5 μg of pI:C to each lymph node) at day 0, 3, 14 and 17. One week after the boost, splenocytes were stimulated ex vivo with the native PSMA288-297 peptide and tested against ^51Cr-labeled human tumor cells (PSMA^+ A2^+ LnCap cells, or as negative control, LnCap cells coated with MHC class I-blocking antibody) at various E:T ratios.
HHD transgenic mice (n=4) were immunized with plasmid expressing the PSMA288-297 epitope by direct inoculation into the inguinal lymph nodes with 25 μg in 25 μl of PBS to each lymph node at day 0, 3, 14 and 17. This was followed by two peptide boosts (same amount) at day 28 and 31, with the analog I297V. One week after the boost, splenocytes were stimulated ex vivo with the native PSMA288-297 peptide and tested overnight against ^51Cr-labeled human tumor cells (Lncap, A2^+ PSMA^+; or 624.38 A2^+ PSMA^− or control 624.28 cells A2^− PSMA^−) at various E:T ratios.

[6] = test system: T cells that recognized native PSMA288-297 peptide; experiment: Peptide immunization with PSMA analogs, IFN-gamma ELISPOT against native peptide; assay type: in vivo, HHD transgenic mice; conditions: peptide + pI:C intranodal immunization
Procedure: Groups of HHD transgenic mice (n=8) were immunized with peptide (natural epitope PSMA288-297, or analogs bearing substitutions at primary or secondary anchor residues) by direct inoculation into the inguinal lymph nodes, with 25 μg in 25 μl of PBS+12.5 μg of pI:C to each lymph node at day 0, 3, 14 and 17.
Mice were sacrificed at 10 days after the last boost, and splenocytes prepared and assessed for IFN-γ production by ELISPOT analysis. […] At 48 hours after incubation, the assay was developed and the frequency of cytokine-producing T cells that recognized native PSMA288-297 peptide was automatically counted. The data is represented in FIG. 22 as the number of spot forming colonies/well (mean of triplicates±SD). […] To the extent that the poor immunogenicity of the native epitope reflects tolerance, the improved activity of these analogs represents tolerance breaking.

[7] = test system: T cells that recognized the PSMA288-297 peptide; experiment: Plasmid prime, PSMA peptide boost, IFN-gamma ELISPOT; assay type: in vivo, HHD transgenic mice; conditions: versus natural peptide boost
Procedure: Two groups of HHD transgenic mice (n=8) were immunized with plasmid expressing PSMA288-297 by direct inoculation into the inguinal lymph nodes with 25 μg in 25 μl of PBS to each lymph node at day 0, 3, 14 and 17. This was followed by two peptide boosts (25 μg) at day 28 and 31 with either the natural peptide or the I297V analog.
Mice were sacrificed at 10 days after the last boost, and splenocytes prepared and assessed for IFN-γ production by ELISPOT analysis. […] At 48 hours after incubation, the assay was developed and the frequency of cytokine-producing T cells that recognized the PSMA288-297 peptide was automatically counted. The data is represented in FIG. 23 as frequency of specific T cells normalized to 0.5 million responder cells (mean of triplicates+SD).

[8] = test system: T cells specific for the wild-type NY-ESO-1157-165 epitope; experiment: Cross-reactivity and functional avidity of NY-ESO-1 157-165 analogs (IFN-gamma); assay type: cell-based, HHD transgenic mice
Excerpt: A methodology was devised to allow rapid and rational screening of peptide analogs in a fashion coherent with proposed methods of use and modeling the overall immunologic properties (Kon and Koff relative to MHC interaction and TCR binding properties in an integrated fashion). In some instances, the method included generating T cell lines against a natural (non-mutated) epitope (SSX-241-49), and using an immunization strategy potent enough to generate a useful response in transgenic mice carrying human MHC (such as the A2 allele). Peptide analogs were interrogated ex vivo in the presence of competent APCs and the functional impact of T cells specific for natural (non-mutated) epitopes measured. The evaluation was done at various concentrations of analog, because the expected effect was biphasic in the case of cross reactive peptides (activating at limited concentrations and inhibiting at higher concentrations, due to antigen-induced cell death, AICD). Measurement of the following three parameters were used to define basic and useful characteristics of peptide analogs: • 1. […]
At 7 days after the last boost, the mice were sacrificed and a suspension of splenocytes prepared at 5×10^6 […] cells/ml in complete HL-1 medium. […] The supernatant was harvested and the concentration of IFN-gamma assessed by standard methods such as ELISA. […]

[9] = biological target: HLA-A*0201 (Homo sapiens, UniProt P04439, D140Y/D185E/D98H/E176V/E277Q/G131W/G231S/I119V/I121R/I166T/I218V/L300P/L318F/N151K/N90K/P208A/P217A/Q86G/Q94H/R138H/R169H/T345S); experiment: iTopia off-rate assay (T1/2); assay type: binding; conditions: PRAME425-433 and analogs
Procedure: Avidin-coated microtiter plates containing class I monomer loaded with a so-called placeholder peptide were used to evaluate peptide binding, affinity and off-rate. […] Assay buffers, anti-MHC-FITC mAb and beta2-microglobulin and control peptides were also supplied with the kits.
The plates were then incubated on the allele-specific monomer plates at 37° C. The plates were measured at multiple time points (0, 0.5, 1, 1.5, 2, 4, 6 and 8 hrs) for relative fluorescence intensity. The time required for 50% of the peptide to dissociate from the MHC monomer is defined as the T1/2 value (hrs).
The binding and offrate (T1/2) was determined for six native epitopes and their analogs which were designed to enhance the immune response.

[10] = test system: native epitope coated cells; experiment: pCTLR2 prime, PRAME peptide boost, in vivo cytotoxicity (CFSE); parameters: species or system HHD transgenic mice
[11] = test system: 624.38 cells; experiment: pSEM prime, Tyrosinase peptide boost, ex vivo cytotoxicity against human tumor cells; assay type: in vivo, HHD transgenic mice
Procedure: HHD transgenic mice (n=4/group) were immunized (according to the general protocol in FIG. 40) with plasmid (pSEM) expressing the Tyrosinase369-377 epitope by direct inoculation into the inguinal lymph nodes of 25 μg of plasmid in 25 μl of PBS per lymph node at day 0, 3, 14 and 17. […] One week after the boost, splenocytes were stimulated ex vivo with the native Tyrosinase369-377 peptide and assayed against ^51Cr-labeled human tumor cells (624.38 cells) at various E:T ratios. […] Together with the preceding example, this observation illustrates the usefulness of complementing more stringent assays (in vivo cytotoxicity and tetramer staining) with more sensitive assays (ex vivo cytotoxicity after in vitro stimulation) to outline potentially useful analogs.

CC[C@H](C)[C@H](NC(=O)[C@H](CCCCN)NC(=O)[C@H](CCC(=O)O)NC(=O)[C@H](CO)NC(=O)[C@@H](NC(=O)[C@@H](N)CCCCN)C(C)C)C(=O)N[C@@H](Cc1ccccc1)C(=O)N[C@@H](Cc1ccc(O)cc1)C(=O)N[C@H](C(=O)O)C(C)C [SSX2 41-49 (A42V)]
response against target cells expressing the natural peptide [1]: higher response against target cells expressing the natural peptide
cytotoxicity against human tumor cells, in words [2]: increased cytotoxicity against human tumor cells
Cross-reactivity and fct avidity (native to analogs)* [3]: 0.03
in vivo cytotoxicity (% specific lysis), in words [4]: increased activity relative to the natural peptide

GLPSIPVHPV [PSMA 288-297(I297V)]
ex vivo cytotoxicity against PSMA+ human tumor cells, in words [5]: cytotoxic immunity against a PSMA^+ human tumor line; also recorded: effective in mediating cytotoxicity against LNCAP
IFN-γ ELISPOT response against native epitope, in words [6]: increased priming of immune responses against the native epitope
frequency of native epitope-specific T cells (ELISPOT), in words [7]: considerably higher

L158V: NY-ESO-1 157-165 analog with V for L at position 158 (SVLMWITQC; UniProt P78358 157-165, looked up, variant L158V) [Peptide L158V]
cross-reactivity / activity relative to wild-type, in words [8]: partial retention of activity

S425F: PRAME425-433 analog with Phe for Ser at P1 (FLLQHLIGL) [Peptide S425F]
half time of dissociation [9]: 17.7 h
in vivo cytotoxicity against native epitope, in words [10]: capable of expanding the immunity against the native epitope

YMDGTMSQV [Tyrosinase 369-377, reference compound]
ex vivo cytotoxicity against 624.38 cells, in words [11]: robust cytotoxicity against 624.38 cells

YVDGTMSQNva (YVDGTMSQ[Nva]) [M370V V377Nva]
ex vivo cytotoxicity against 624.38 cells, in words [11]: robust cytotoxicity against 624.38 cells
